Results from PMC4076021 (ACS chemical biology, 2014).
Where two headings read alike, the source gives them in different places. Each block holds one compound with its values, some of them ahead of it.

Legend:
GST-LSD1 [1] = biological target: T1, GST-LSD1 (Homo sapiens, UniProt O60341); assay: biochemical; type: biochemical; settings: for kinact/KI: read-out: kinact/Ki(inact)
H460 cells [2] = tested on: H460 cells
H3K4Me2 in LNCaP cells = assay: Western blot of histone H3 methylation in LNCaP cells; type: cell-based
GST-LSD1 [3] = biological target: T1, GST-LSD1; assay: MassSQUIRM LSD1 inhibition assay; type: biochemical; settings: 50 µM inhibitor, 30 min, 215 nM GST-LSD1
[4] = tested on: immature primary cortical neurons; assay: Oxidative toxicity; type: cell-based, rat; settings: 0.5 µM, 5 mM HCA, MTT
H3K4Me2 in H460 cells = assay: Western blot of H3K4Me2 in H460 cells; type: cell-based; settings: H460, 48 h, compared with LNCaP
GST-LSD1 [5] = biological target: T1, GST-LSD1; settings: cited from earlier work
H460 cells [6] = assay: [3H] thymidine incorporation proliferation assay in H460 cells; type: cell-based; settings: H460, 48 h, 80 µM
[7] = mechanism-based inactivation, extrapolated to zero substrate

Structure (SMILES): CN(C)NCCc1ccccc1 [9b]
- IC50 (GST-LSD1 [1]): > 100 µM

Structure (SMILES): CNNCCCc1ccc(OC)cc1 [9f]
- IC50 (GST-LSD1 [1]): > 100 µM

Structure (SMILES): Nc1ncn([C@@H]2O[C@H](CO)[C@@H](O)[C@H]2O)c(=O)n1 [azacytidine]
- combination effect on inhibition of H460 cell proliferation (in words) (H460 cells [2]): moderate antagonism

Structure (SMILES): NNCCc1ccc(NC(=O)CCc2ccccc2)cc1 [12c]
- kinact (GST-LSD1 [1]): 0.004 s⁻¹
- kinact/KI (GST-LSD1 [1]): 15300 M⁻¹ s⁻¹

Structure (SMILES): Cl.Cl.NNCCc1ccc(NC(=O)CCCc2ccccc2)cc1 [12d]
- LSD1 inhibition in MassSQUIRM assay (in words) (GST-LSD1 [3]): very substantial LSD1 inhibition
- survival of neurons after HCA treatment (in words) [4]: significantly enhanced survival
- effect on H3K4Me2 levels (in words) (H3K4Me2 in H460 cells): comparable dose-response effects
- H3K4Me2 band density time course (in words) (H3K4Me2 in LNCaP cells; 10 µM, normalized to vehicle, 3 biological replicates): Statistically significant increases were observed at 6, 24, 48, 72, and 96 h but not at 30 min and 12 h
- changes in H3K4Me1, H3K4Me3, unmethylated H3K4, H3K9Me2, H3K9Ac, H3K36Me3 (in words) (H3K4Me2 in LNCaP cells; 0.4–10 µM, 48 h): no significant reproducible changes
- effect on LSD1 protein levels (in words) (H3K4Me2 in LNCaP cells; 0.4–10 µM, 48 h): no discernible effect
- H3K4Me2 band density (in words) (H3K4Me2 in LNCaP cells; 48 h, 3 µM and 10 µM, three biological replicates): Statistically significant increases

Structure (SMILES): Cc1[nH]c2ccccc2c1CCNCc1ccc(/C=C/C(=O)NO)cc1 [LBH-589]
- combination effect on inhibition of H460 cell proliferation (in words) (H460 cells [2]): additive to synergistic effects

Structure (SMILES): Nc1ccccc1NC(=O)c1ccc(CNC(=O)OCc2cccnc2)cc1 [MS-275]
- combination effect on inhibition of H460 cell proliferation (in words) (H460 cells [2]): additive to synergistic effects

Structure (SMILES): Nc1ccccc1NC(=O)c1ccc(CNc2nccc(-c3cccnc3)n2)cc1 [MGCD0103]
- combination effect on inhibition of H460 cell proliferation (in words) (H460 cells [2]): moderate antagonism
- combination index (CI) (H460 cells [2]): > 1

Structure (SMILES): NNCCc1ccc(NC(=O)c2ccccc2)cc1 [12a]
- KI (inactivation) (GST-LSD1 [1]): 0.28 ± 0.11 µM
- kinact (GST-LSD1 [1]): 0.00317 s⁻¹
- kinact/KI (GST-LSD1 [1]): 11700 M⁻¹ s⁻¹

Structure (SMILES): NNCCc1ccc(NC(=O)Cc2ccccc2)cc1 [12b]
- KI (inactivation) (GST-LSD1 [1]): 0.37 ± 0.033 µM
- kinact (GST-LSD1 [1]): 0.00333 s⁻¹
- kinact/KI (GST-LSD1 [1]): 9000 M⁻¹ s⁻¹

Structure (SMILES): NNCCc1ccc(NC(=O)CCCCc2ccccc2)cc1 [12e]
- kinact (GST-LSD1 [1]): 0.00367 s⁻¹
- KI (inactivation) (GST-LSD1 [1]; [7]): 0.26 ± 0.11 µM
- kinact/KI (GST-LSD1 [1]): 14300 M⁻¹ s⁻¹

Structure (SMILES): CC(/C=C/C(=O)NO)=C\[C@@H](C)C(=O)c1ccc(N(C)C)cc1 [TSA]
- combination effect on inhibition of H460 cell proliferation (in words) (H460 cells [2]): moderate antagonism
- combination index (CI) (H460 cells [2]): > 1

Further lines, with some results ahead:

- kinact (GST-LSD1 [1]): 0.00367 s⁻¹
- KI (inactivation) (GST-LSD1 [1]; [7]): 1.6 ± 0.49 µM
- kinact/KI (GST-LSD1 [1]): 2330 M⁻¹ s⁻¹
Structure (SMILES): NNCCc1ccc(N(Cc2ccccc2)C(=O)CCCc2ccccc2)cc1 [12m]

- KI (inactivation) (GST-LSD1 [1]): 12 ± 2.1 µM
- kinact (GST-LSD1 [1]): 0.00367 s⁻¹
- kinact/KI (GST-LSD1 [1]): 300 M⁻¹ s⁻¹
Structure (SMILES): NNCCCOc1ccccc1 [10b]

- kinact (GST-LSD1 [1]): 0.00283 s⁻¹
- kinact/KI (GST-LSD1 [1]): 18300 M⁻¹ s⁻¹
Structure (SMILES): NNCCc1ccc(NC(=O)CCCc2ccc(Cl)cc2)cc1 [12f]

- kinact (GST-LSD1 [1]): 0.0035 s⁻¹
- kinact/KI (GST-LSD1 [1]): 16700 M⁻¹ s⁻¹
Structure (SMILES): NNCCc1ccc(NC(=O)CCc2c[nH]c3ccccc23)cc1 [15a]

- KI (inactivation) (GST-LSD1 [1]): 8 ± 3.5 µM
- LSD1 inhibitory action (in words) (GST-LSD1 [1]): made little difference
- kinact (GST-LSD1 [1]): 0.0025 s⁻¹
- kinact/KI (GST-LSD1 [1]): 317 M⁻¹ s⁻¹
Structure (SMILES): COc1ccc(CCCNN)cc1.Cl.Cl [9e]

- fold weaker LSD1 inhibitor than bizine (GST-LSD1 [1]): ~ 30 fold
- kinact (GST-LSD1 [1]): 0.004 s⁻¹
- KI (inactivation) (GST-LSD1 [1]; [7]): 2 ± 0.73 µM
- kinact/KI (GST-LSD1 [1]): 2000 M⁻¹ s⁻¹
Structure (SMILES): CN(C(=O)CCCc1ccccc1)c1ccc(CCNN)cc1.O=C(O)C(=O)O [12l]
- H3K4Me2 changes (in words) (H3K4Me2 in LNCaP cells; 48 h, concentrations up to 10 µM): did not show changes in H3K4Me2

- kinact (GST-LSD1 [1]): 0.00283 s⁻¹
- kinact/KI (GST-LSD1 [1]): 28300 M⁻¹ s⁻¹
Structure (SMILES): NNCCc1ccc(NC(=O)/C=C/c2ccccc2)cc1 [compound 13]

- KI (inactivation) (GST-LSD1 [1]): 22 ± 3 µM
- kinact (GST-LSD1 [1]): 0.002 s⁻¹
- kinact/KI (GST-LSD1 [1]): 91.7 M⁻¹ s⁻¹
Structure (SMILES): NNCCCCc1ccccc1 [9h]

- kinact (GST-LSD1 [1]): 0.0035 s⁻¹
- kinact/KI (GST-LSD1 [1]): 12300 M⁻¹ s⁻¹
Structure (SMILES): NNCCc1ccc(NC(=O)CCCc2ccc([N+](=O)[O-])cc2)cc1 [12i]

- LSD1 inhibition in MassSQUIRM assay (in words) (GST-LSD1 [3]): negligible impact on LSD1 inhibition
Structure (SMILES): NNCCc1ccccc1 [phenelzine, reference compound]
- concentration needed to extinguish LSD1 activity under MassSQUIRM conditions (GST-LSD1 [5]): greater than 10 mM
- reduction in 3H-thymidine incorporation (H460 cells [6]): < 50%
- H3K4Me2 changes (in words) (H3K4Me2 in LNCaP cells; 48 h, concentrations up to 40 µM): did not induce H3K4Me2 changes

- KI (inactivation) (GST-LSD1 [1]): 44 ± 9.7 µM
- kinact (GST-LSD1 [1]): 0.0025 s⁻¹
- kinact/KI (GST-LSD1 [1]): 56.7 M⁻¹ s⁻¹
Structure (SMILES): NNCCOc1ccccc1 [10a]

- IC50 (GST-LSD1 [1]): > 100 µM
- LSD1 inhibitory action (in words) (GST-LSD1 [1]): not compatible with LSD1 inhibition
Structure (SMILES): NNCCCN1CCOCC1 [compound 11]

- LSD1 inhibitory action (in words) (GST-LSD1 [1]): negated LSD1 inhibitory action
Structure (SMILES): CNNCCc1ccccc1.Cl.Cl [9a]
